Measurements published in patent publication US7456274B2, “Inhibition of metallo-β-lactamase” (priority 2003, dated 2008).
Entries after “also recorded” stand apart in the source; their conditions may differ. Where two headings read alike, the source gives them in different places.

Assays:
[1] = molecular target: T1, bovine carboxypeptidase A (Bos taurus, UniProt P00730); assay: Bovine carboxypeptidase A assay (hippuryl-L-phenylalanine hydrolysis), specificity test; type: biochemical; details: 25 nM; 1 mM hippuryl-L-phenylalanine; 25° C., pH=7.5
T1 construct: purchased Sigma
T1 sequence (P00730 111-419): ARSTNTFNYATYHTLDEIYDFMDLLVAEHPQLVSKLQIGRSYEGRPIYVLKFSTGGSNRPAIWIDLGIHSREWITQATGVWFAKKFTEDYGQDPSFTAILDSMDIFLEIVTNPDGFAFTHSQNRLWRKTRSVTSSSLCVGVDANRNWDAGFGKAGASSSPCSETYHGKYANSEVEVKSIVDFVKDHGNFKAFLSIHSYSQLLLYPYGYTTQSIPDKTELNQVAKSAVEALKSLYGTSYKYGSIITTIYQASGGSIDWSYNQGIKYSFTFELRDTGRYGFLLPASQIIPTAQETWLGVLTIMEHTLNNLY
Method: Method for assay of bovine carboxypeptidase A. The assay of bovine carboxypeptidase A is based on the method of Folk and Schirmer (1963). The rate of hydrolysis of hippuryl-L-phenylalanine is determined by monitoring the increase in absorbance at 254 nm ([…], pH=7.5). The enzyme was dissolved in 10% lithium chloride to a concentration of 1-3 units per mL. Hippuryl-L-phenylalanine (0.001 M) was dissolved in 0.05 M TrisHCl, pH=7.5 with 0.5 M sodium chloride. In a 1 cm of cuvette, 1.0 mL of substrate was added and incubated in the spectrophotometer at 25° C. for 3-4 minutes to reach temperature equilibration and establish blank rate. Fifty μL of diluted enzyme was added to record increase in A254. The enzyme was preincubated with/without the inhibitor in the buffer for 15 min. at 25° C.

[2] = molecular target: B. cereus 5/B/6 metallo-β-lactamase (Bacillus cereus, UniProt P14488); type: biochemical; details: for time dependence of the reversible inhibition: 50 mM MOPS, cephalosporin C; for time dependence of the reversible inhibition / IC50: pH=7.0; for inhibition pattern from steady-state kinetic study: Lineweaver-Burk plot; for IC50: enzyme preincubated 15 min at 30° C. in 50 mM MOPS, 4 mM cephalosporin C
Sequence of B. cereus 5/B/6 metallo-β-lactamase (P14488 30-256): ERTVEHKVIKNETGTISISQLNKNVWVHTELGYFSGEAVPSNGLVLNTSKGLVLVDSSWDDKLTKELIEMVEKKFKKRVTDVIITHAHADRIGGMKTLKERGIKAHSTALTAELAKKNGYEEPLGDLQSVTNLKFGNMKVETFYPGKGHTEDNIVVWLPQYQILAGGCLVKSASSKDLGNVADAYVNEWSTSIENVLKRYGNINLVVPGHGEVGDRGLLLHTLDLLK

[3] = molecular target: metallo-β-lactamase from B. fragilis (Bacteroides fragilis, UniProt P25910); details: NMR characterization; Scrofani et al. (1999); cited from earlier work
Sequence of metallo-β-lactamase from B. fragilis (P25910 19-249): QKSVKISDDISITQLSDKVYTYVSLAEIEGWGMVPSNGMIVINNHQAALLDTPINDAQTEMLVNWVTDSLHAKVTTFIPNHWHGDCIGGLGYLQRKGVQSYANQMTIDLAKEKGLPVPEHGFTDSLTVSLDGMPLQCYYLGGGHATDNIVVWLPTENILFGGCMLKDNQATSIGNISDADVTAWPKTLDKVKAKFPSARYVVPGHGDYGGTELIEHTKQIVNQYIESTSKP

[4] = molecular target: metallo-β-lactamase from Stenotrophomonas maltophilia (Stenotrophomonas maltophilia, UniProt P52700); details: Yang and Crowder (1999); cited from earlier work
Sequence of metallo-β-lactamase from Stenotrophomonas maltophilia (P52700 34-290): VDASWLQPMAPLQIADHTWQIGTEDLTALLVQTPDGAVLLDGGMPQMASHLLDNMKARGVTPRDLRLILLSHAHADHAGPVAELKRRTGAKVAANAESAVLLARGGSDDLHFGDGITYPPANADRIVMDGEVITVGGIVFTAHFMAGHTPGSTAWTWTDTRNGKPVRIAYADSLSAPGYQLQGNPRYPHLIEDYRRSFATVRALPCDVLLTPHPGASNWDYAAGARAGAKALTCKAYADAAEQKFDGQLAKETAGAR

[5] = test system: class B β-lactamases; details: cited from earlier work
[6] = molecular target: metallo-β-lactamases (Bacillus cereus enzyme) (Bacillus cereus, UniProt P04190); details: Mollard et al. (2001); cited from earlier work
Sequence of metallo-β-lactamases (Bacillus cereus enzyme) (P04190 31-257): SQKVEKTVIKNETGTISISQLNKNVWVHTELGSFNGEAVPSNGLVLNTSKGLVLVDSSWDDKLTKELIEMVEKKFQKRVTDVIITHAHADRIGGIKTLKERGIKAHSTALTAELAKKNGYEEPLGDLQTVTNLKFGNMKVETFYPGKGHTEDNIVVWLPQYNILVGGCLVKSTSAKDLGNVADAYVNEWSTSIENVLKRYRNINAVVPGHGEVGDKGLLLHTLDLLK

[7] = intercept replot of Lineweaver-Burk data, read-out: Ki′ (dissociation constant for the inhibitor from the enzyme-substrate-inhibitor complex)
[8] = slope replot of Lineweaver-Burk data, read-out: Ki (dissociation constant for the inhibitor from the enzyme-inhibitor complex)

Row | Compound | inhibition pattern from steady-state kinetic study [2] | IC50 [2] | Ki [2, 7] | Ki [2, 8] | also measured
1 | 5′-d(AACCAAACTTGGATCGGTGCACATGTCGAA)-3′ [30-mer] | noncompetitive inhibition | 0.0012 µM | 0.011 µM | 0.00092 µM | effect on the activity of the carboxypeptidase A [1]: no effect; also recorded: did not show any inhibition; time dependence of the reversible inhibition ([2]; 0.5 nM the 30-mer): time-independent; also recorded: not time-dependent
2 | 5′-d(CCAAACTTGG)-3′ [10-mer] | noncompetitive inhibition |  |  |  | effect on the activity of the carboxypeptidase A [1]: no effect; also recorded: did not show any inhibition; time dependence of the reversible inhibition ([2]; 1.0 nM of the 10-mer): time-independent; also recorded: not time-dependent; fold lower Ki than the Ki reported for R-thiomandelic acid ([2]; vs. Mollard et al. (2001)): 290 fold
3 | OCCS [2-mercaptoethanol, reference compound] | noncompetitive inhibition | 4 µM | 4 µM | 2 µM | 
4 | CC1(C)SCN(C(=O)[C@@H](CS)Cc2ccccc2)[C@H]1C(=O)O [3-[2′-(S)-benzyl-3′-mercaptopropanoyl]-4-(S)-carboxy-5,5-dimethylthiazolidine] |  |  |  |  | binding to metallo-β-lactamase [3]: “tightly” binds
5 | O=C(O)CN(CCN(CC(=O)O)CC(=O)O)CC(=O)O [EDTA, reference compound] | noncompetitive inhibition | 3.1 µM | 2.9 µM | 0.75 µM | 
6 | O=C(Cc1ccccc1)NCCS [N-(2′-mercaptoethyl)-2-phenylacetamide] |  |  |  |  | Ki [4]: 50 ± 3 µM; type of inhibition [4]: competitive inhibitors
7 | O=C(O)[C@H]1/C(=C/CO)O[C@@H]2CC(=O)N21 [clavulanic acid] |  |  |  |  | inhibition of class B β-lactamases [5]: do not inhibit
8 | O=C1C[C@H]2SC=CN12 [penem] |  |  |  |  | inhibition of class B β-lactamases [5]: do not inhibit
9 | N-benzylacetyl-D-alanylthioacetic acid |  |  |  |  | Ki [4]: 1.6 ± 0.3 µM; type of inhibition [4]: competitive inhibitors
10 | R-thiomandelic acid |  |  |  |  | Ki [6]: 0.09 µM
